Tests used:
[1] = test system: ER transcriptional activity; test: RNA-seq ER-regulated gene expression in MCF7 and CAMA-1 cells; format: cell-based, human; settings: 100 nmol/L + 1 nmol/L estradiol, 24 hours
Description: MCF7 and CAMA-1 cells were seeded into 6-well microplates in phenol red-free RPMI-1640 medium (Invitrogen) containing 2 mmol/L L-glutamine and 5% (volume/volume, v/v) charcoal-stripped FBS (Sigma). […] Samples were harvested in 1 mL of QIAzol lysis buffer and snap-frozen. Snap-frozen tissue from PDX studies was homogenized and resuspended in QIAzol lysis buffer. RNA was extracted using RNeasy 96 QIAcube HT total RNA Cell with DNAse treatment, and samples randomized over 96-well plates. RNA was quantified using the Qubit RNA BR kit (Q10213 Invitrogen), per the manufacturer's instructions.
[…], RNA integrity was analyzed on a TapeStation 4200 using the RNA 6000 Nano Kit (5067 1511, Agilent), according to the manufacturers’ instructions. The Illumina Truseq stranded mRNA library was generated by the Cancer Research UK Cambridge Institute Genomic core facility, and sequencing of cell lines was performed on the Illumina Hiseq4000 platform, providing single-end 50 base pair reads and around 20 million reads per sample. PDX samples were sequenced using Illumina NovaSeq600, providing paired-end 100 base pair reads and around 34 million reads per sample.
Quality control and gene expression quantification of RNA sequencing (RNA-seq) were performed using the RNA-seq pipeline implemented in bcbio-nextgen (https://bcbio-nextgen.readthedocs.org/en/latest/). Reads were aligned to the University of California (Santa Cruz, CA) Homo sapiens GRCh38 genome build, augmented with transcript information from Ensembl release 86 using HiSat2 ([31]). Alignments were evaluated for evenness of coverage, ribosomal RNA content, genomic context of alignments, and complexity, using a combination of FastQC, Qualimap, and custom computational tools ([32]). Transcripts per million measurements per isoform were generated by quasi-alignment using Salmon and were used to estimate the abundance of genes ([33]). The aggregated gene counts were used for differential gene expression analyses using DESeq2 ([34]).

CAMA-1 cells = test: Sytox Green proliferation assay, CAMA-1; format: cell-based, human; settings: 7-day proliferation
Description: MCF7 and CAMA-1 cells were seeded into 96-well microplates in phenol red-free RPMI-1640 medium containing 2 mmol/L L-glutamine and 5% (v/v) charcoal-stripped FBS at 4×10^3 and 8×10^3 cells/well, based on the doubling time of each cell line. Plates were incubated for 24 hours (37°C; 5% CO2) and a 10-point concentration range of selected compounds was dispensed onto the cells. Dimethyl sulfoxide (DMSO) was dispensed into control wells to give a 0.1% final concentration. One plate was untreated, as a day 0 control. […] were counted at days 0 and 7 (or day 6 for Y537S ESR1m MCF7 cells) using Sytox Green nucleic assay stain (180 nmol/L per well). Green (dead) cells were counted at days 0 and 7 using an Acumen Explorer (TTP Labtech) or Cellinsight imager (Thermo Fisher Scientific). Saponin 0.045% (weight/volume) was added to permeabilize the cells overnight, permitting total cell count. The number of live cells was calculated by subtracting dead cells from the total cell count, and curve-fitted using GraphPad Prism. Average cell counts from the day 0 plate were used to determine 0% cell growth. A dose–response curve was plotted using non-linear regression to determine the IC50 and bottom-of-curve values. Viability assay methods are described in Supplementary Methods.

[2] = target: T1, ER in Ishikawa endometrial cancer cell line (Homo sapiens, UniProt P03372); test: ER degradation and agonism (PgR expression) in Ishikawa cells; format: cell-based
T1 sequence (P03372 1-595): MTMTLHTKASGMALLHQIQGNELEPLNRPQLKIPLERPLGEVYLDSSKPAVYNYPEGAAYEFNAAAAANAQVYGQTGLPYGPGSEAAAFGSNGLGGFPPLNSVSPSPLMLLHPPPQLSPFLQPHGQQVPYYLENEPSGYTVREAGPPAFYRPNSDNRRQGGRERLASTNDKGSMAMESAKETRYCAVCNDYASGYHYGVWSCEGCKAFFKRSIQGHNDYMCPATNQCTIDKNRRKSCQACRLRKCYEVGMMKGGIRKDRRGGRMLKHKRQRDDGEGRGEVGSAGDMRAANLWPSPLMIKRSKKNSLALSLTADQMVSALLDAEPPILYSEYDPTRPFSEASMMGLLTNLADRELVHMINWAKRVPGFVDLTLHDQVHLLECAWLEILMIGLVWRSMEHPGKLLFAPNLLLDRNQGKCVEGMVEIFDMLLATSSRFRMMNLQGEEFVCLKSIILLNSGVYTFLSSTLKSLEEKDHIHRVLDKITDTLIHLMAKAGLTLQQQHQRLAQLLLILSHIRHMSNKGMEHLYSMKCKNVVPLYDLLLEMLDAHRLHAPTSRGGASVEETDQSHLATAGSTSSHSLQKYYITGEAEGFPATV
Description: Cells were seeded into 12-well tissue culture-treated plates (0.5×10^6 cells/well) in phenol red-free RPMI medium containing 5% (v/v) charcoal-stripped FBS.
Cell lysates were loaded on NuPAGE 4% to 12% Bis-Tris Midi Protein Gels, transferred to nitrocellulose membranes and immunoblotted with anti-ER antibody (clone SP1, Thermo Fisher Scientific). To detect ER agonism, Ishikawa cells were incubated in media containing 5% (v/v) double charcoal-stripped FBS, achieved by stripping FBS using activated charcoal (C9157, Sigma). Blots were probed with anti-PgR antibody (clone 636, Dako) then horseradish peroxidase secondary antibody (anti-mouse, 7076 Cell Signaling Technology or anti-rabbit, 7070 Cell Signaling Technology). Protein levels were measured on the G-box using Pierce West Dura and West Femto chemiluminescent reagents and Syngene software.

ST3632 ESR1wt PDX = test: Efficacy in ST3632 PDX model; format: in vivo, mice; settings: oral camizestrant 10 mg/kg daily, palbociclib 50 mg/kg daily, abemaciclib 50 mg/kg daily
[3] = test system: MCF7 palbociclib-resistant cell lines (PC1, PC6, PC8); test: Cell Titer Glo viability in palbociclib-resistant MCF7 lines; format: cell-based, human; settings: 7 days
Description: B) Viability of CTC174 PDX-derived […]
organoids treated with the indicated drugs for 144 hours. Mean ± standard error of the mean (one experiment using six independent CTC174 organoid lines in three technical replicates). P values were calculated using two-tailed paired t tests of biological replicates. C) Immunoblots of CTC174 PDX tumors and quantification of ER, pS6, S6, or PCNA following treatment. Mean ± standard deviation (n=5). p values were calculated using ANOVA tests. D) Genetic backgrounds for cell lines with putative mechanism of resistance to palbociclib indicated for each cell line. Combination matrix plots […]
palbociclib or abemaciclib at indicated doses for 7 days using Cell Titer Glo viability assay. Values represent measured cell viability normalized to Day 0 (treatment day) and dimethyl sulfoxide control at Day 7. […]
protein levels measured by western blot. […]
dependent kinase 4/6 (inhibitor); Ctrl, control; del, deletion; ER, estrogen receptor; ESR1, estrogen receptor 1 gene; Everol, everolimus; MCL1, induced myeloid leukemia cell differentiation protein; mut, mutation; nd, not determined; Palbo, palbociclib; PCNA, proliferating cell nuclear antigen; PDX, patient-derived xenograft; PgR, progesterone receptor; PIK3CA, phosphatidylinositol 3-kinase subunit α; Rb, retinoblastoma; S6, Ribosomal protein S6; veh, vehicle; wt, wild-type […]
An untreated plate was read on […]

ST1799/HI/PBR PDX = test: Efficacy in palbociclib-resistant ST1799/HI/PBR PDX model; format: in vivo, mice; settings: camizestrant 10 mg/kg daily, palbociclib 50 mg/kg, abemaciclib 50 mg/kg, capivasertib 130 mg/kg, 40 days
Description: For all PDX models, tumors were measured twice weekly; changes in tumor volume and growth inhibition were determined by bilateral Vernier caliper measurement (length x width). Length was the longest diameter across the tumor and width the corresponding perpendicular.
For efficacy studies, animals were randomized into treatment groups and dosing started once tumor volume reached 150–300 mm^3. Details of efficacy studies, and group sizes and treatments are described in corresponding figure legends. PDX models in Fig. 6 and Supplementary Fig. S1 were part of the multi-arm study (with arms irrelevant to this publication) with common control monotherapy arms (e.g., the vehicle-treated group).
(TV) was calculated using the formula: TV (mm3) = (3.142 x max (length:width) x min […]
established tumors were removed from two donor mice and dissected into 3x3x3 mm pieces in RPMI 1640 media. […] TV was calculated as TV (mm3) = width2 x length x 0.52.
For the combination studies in the CTC174 PDX model (hormone-independent), established tumors were removed from donor mice and dissected into 3x3x3 mm pieces in RPMI 1640 media. […] TV was calculated using the formula: TV (mm3) = (3.142 x max (length:width) x min (length:width) x min (length:width))/6,000, or (mm3) = width2 x length x 0.52 for the CTC174 study. […]

C[C@@H]1Cc2c([nH]c3ccccc23)[C@@H](c2c(F)cc(/C=C/C(=O)O)cc2F)N1CC(C)(C)F [AZD9496]
estradiol-driven gene expression (ER transcriptional activity) [1]: antagonized all estradiol-driven gene expression
cell growth inhibition (CAMA-1 cells): weaker antiproliferative effects
ER agonism (PgR expression as a marker) [2]: evident in endometrial in vitro and in vivo models

CCN1CCN(Cc2ccc(Nc3ncc(F)c(-c4cc(F)c5nc(C)n(C(C)C)c5c4)n3)nc2)CC1 [abemaciclib, reference compound]
reduction of relative TV compared with the vehicle (ST3632 ESR1wt PDX): 46%
sensitivity of palbociclib-resistant lines [3]: sensitive

NC1(C(=O)N[C@@H](CCO)c2ccc(Cl)cc2)CCN(c2nc[nH]c3nccc2-3)CC1 [capivasertib, reference compound]
tumor growth (ST1799/HI/PBR PDX): could not completely arrest tumor growth

CC(=O)c1c(C)c2cnc(Nc3ccc(N4CCNCC4)cn3)nc2n(C2CCCC2)c1=O [palbociclib]
reduction of relative TV compared with the vehicle (ST3632 ESR1wt PDX): 0%
